Results on four molecules are retold here after US12297204B2, “5-(substitutedphenyl)-7-thioxo-7,8-dihydropyrimido[4,5-d]pyrimidine-2,4(1H,3H)-dione analogues as antibacterial agents” (KING FAISAL UNIVERSITY, priority 2023, dated 2025).

One experiment has as its system B. subtilis. As to the kind of experiment: Antimicrobial activity MIC, B. subtilis. The format is cell-based, Bacillus subtilis (MTCC 441).
Another experiment has as its system P. citrinum. In words: Antimicrobial activity MIC, P. citrinum. The format is cell-based, Penicillium citrinum.
The subject of a further experiment is E. coli. As to the kind of experiment: Antimicrobial activity MIC, E. coli. The format is cell-based, Escherichia coli (MTCC 443).
A further experiment relates to C. albicans. As to the kind of experiment: Antimicrobial activity MIC, C. albicans. Type of experiment: cell-based, Candida albicans.
In a further experiment the test system is T. atroviridae. In words: Antimicrobial activity MIC, T. atroviridae. Type of experiment: cell-based, Trichoderma atroviride.
A further experiment relates to A. flavus. In words: Antimicrobial activity MIC, A. flavus. Type of experiment: cell-based, Aspergillus flavus.
Another experiment has as its system P. aeruginosa. As to the kind of experiment: Antimicrobial activity MIC, P. aeruginosa. Type of experiment: cell-based, Pseudomonas aeruginosa (MTCC 424).
In the next experiment the test system is S. aureus. As to the kind of experiment: Antimicrobial activity MIC, S. aureus. The format is cell-based, Staphylococcus aureus (MTCC 9660).

Values after ≈ are worked out from the molar mass of the structure shown.

`O=c1[nH]c(=O)c2c(-c3cccc(OCc4ccccc4)c3)nc(=S)[nH]c2[nH]1` [Compound 4a, 5-(3-(Benzyloxy)phenyl)-7-thioxo-7,8-dihydropyrimido[4,5-d]pyrimidine-2,4(1H,3H)-dione]: the MIC against B. subtilis (Bacillus subtilis) was found to be 0.01 µM (≈ 0.00378 µg/mL); against P. citrinum (Penicillium citrinum) it was 0.17 µM (≈ 0.0643 µg/mL); in the experiment on E. coli (Escherichia coli), 0.04 µM (≈ 0.0151 µg/mL); in the experiment with C. albicans (Candida albicans) it was 0.08 µM (≈ 0.0303 µg/mL); in the experiment on T. atroviridae (Trichoderma atroviride), 0.17 µM (≈ 0.0643 µg/mL); with A. flavus (Aspergillus flavus), 0.17 µM (≈ 0.0643 µg/mL). Moreover, the MIC against P. aeruginosa (Pseudomonas aeruginosa) came out at 0.04 µM (≈ 0.0151 µg/mL); in the experiment on S. aureus (Staphylococcus aureus), 0.02 µM (≈ 0.00757 µg/mL).
Turning to `COc1ccc(-c2nc(=S)[nH]c3[nH]c(=O)[nH]c(=O)c23)cc1O` [Compound 4c, 5-(3-Hydroxy-4-methoxyphenyl)-7-thioxo-7,8-dihydropyrimido[4,5-d]pyrimidine-2,4(1H,3H)-dione], the MIC against B. subtilis (Bacillus subtilis) is 0.2 µM (≈ 0.0637 µg/mL); against P. citrinum (Penicillium citrinum), 0.05 µM (≈ 0.0159 µg/mL); against E. coli (Escherichia coli), 0.2 µM (≈ 0.0637 µg/mL); against C. albicans (Candida albicans), 0.03 µM (≈ 0.00955 µg/mL); in the experiment with T. atroviridae (Trichoderma atroviride), 0.05 µM (≈ 0.0159 µg/mL); against A. flavus (Aspergillus flavus) it was 0.05 µM (≈ 0.0159 µg/mL). Moreover, the MIC amounted to 0.2 µM (≈ 0.0637 µg/mL) in the experiment with P. aeruginosa (Pseudomonas aeruginosa) and 0.4 µM (≈ 0.127 µg/mL) with S. aureus (Staphylococcus aureus).
Turning to `COc1ccc(-c2nc(=S)[nH]c3c2c(=O)n(C)c(=O)n3C)cc1O` [Compound 4d, 5-(3-Hydroxy-4-methoxyphenyl)-1,3-dimethyl-7-thioxo-7,8-dihydropyrimido[4,5-d]pyrimid-ine-2,4(1H,3H)-dione], the MIC in the experiment on B. subtilis (Bacillus subtilis) worked out at 0.006 µM (≈ 0.00208 µg/mL); against P. citrinum (Penicillium citrinum), 0.37 µM (≈ 0.128 µg/mL); against E. coli (Escherichia coli) it was 0.012 µM (≈ 0.00416 µg/mL); with C. albicans (Candida albicans), 0.18 µM (≈ 0.0623 µg/mL); with T. atroviridae (Trichoderma atroviride), 0.37 µM (≈ 0.128 µg/mL); in the experiment with A. flavus (Aspergillus flavus), 0.37 µM (≈ 0.128 µg/mL). In addition, the minimum inhibitory concentration (MIC) with P. aeruginosa (Pseudomonas aeruginosa) and in the experiment on S. aureus (Staphylococcus aureus) was 0.012 µM (≈ 0.00416 µg/mL) each time.
“5-(4-(Benzyloxy)phenyl)-7-thioxo-7,8-dihydropyrimido[4,5-d]pyrimidine-2,4(1H,3H)-dione [Compound 4b]”: the MIC against B. subtilis (B. subtilis) was determined as 0.17 µM; in the experiment with P. citrinum (P. citrinum), 0.01 µM; with E. coli (E. coli) it was 0.17 µM; in the experiment with C. albicans (C. albicans), 0.005 µM; in the experiment with T. atroviridae (T. atroviridae) it was 0.01 µM; against A. flavus (A. flavus) it was 0.01 µM. For the same molecule, the MIC is 0.17 µM against P. aeruginosa (P. aeruginosa) and 0.34 µM against S. aureus (S. aureus).

Usually MIC stands for the lowest concentration found to suppress growth. Higher therefore signals a need for much substance.
